Data from publication PMC7751820, “Synthesis, cytotoxic assessment, and molecular docking studies of 2,6-diaryl-substituted pyridine and 3,4- dihydropyrimidine-2(1H)-one scaffolds” (Turkish Journal of Chemistry, 2020).
Values after ≈ are worked out from the molar mass of the structure shown. Read-outs that look alike come from different tables or passages of the source.

How the values were obtained:
[1] = tested on: HEK293 cells (human embryonic kidney); assay: MTT cytotoxicity assay, HEK293 normal cells; type: cell-based; conditions: for IC50: Homo sapiens, read-out: IC 50 (μg/mL) HEK293; for cytotoxicity against HEK293 cells compared to the other analogs: pyridine derivatives, Figure 6, 24 h
Description: (§1) FBS, PBS, trypsin, penicillin, streptomycin, DMSO, 3-[4,5-dimethyl thiazol-2-yl]-2,5-diphenyltetrazoliumbromide (MTT), Triton X-100, and RPMI-1640 medium supplemented with 10% heat inactivated FBS were purchased from Sigma-Aldrich. The AGS, HEK293, and MCF7 cell lines were purchased from the National Cell Bank of Iran, Pasteur Institute of Iran, Tehran, Iran.
(§2) In this research, the effects of synthesized compounds on the viability of MCF-7, AGS, and HEK cells were evaluated at various concentrations (0.39–200 μg/mL) utilizing 3-(4,5-dimethylthiazol-2-yl)-2,5-diphenyltetrazolium bromide (MTT) assay. After thawing, the cells were cultured in RPMI 1640 medium containing 10% FBS, penicillin (100 U/mL), and streptomycin ([…]) at 37 °C in a humidified 5% CO2 incubator. The cells were seeded in a 96-well plate at a density of 5000 cells per well (the cells were stained with trypan blue and counted with a hemocytometer). The cells were incubated overnight at 37 °C before cell viability testing. A stock suspension of each of the synthesized compounds at 50 mg/mL in distilled water was prepared. After that, fresh suspensions of different concentrations of the synthesized compounds (2-fold serial dilutions from 0.39 to 200 μg/mL) were made using serial dilutions of the stock suspensions of the synthesized compounds in the RPMI 1640 medium immediately before use. Next, 200 μL of suspension (different concentrations of synthesized compounds) was added to each well of the micropentaplicates. The cells were incubated for 24 and 48 h under the same conditions. Wells without any synthesized compounds served as a negative control. The experiments were performed in pentaplicate for each concentration. To assess cell survival, 100 μL of MTT solution (2 mg/mL in PBS) was added to each well and incubated for 3 h at 37 °C to produce insoluble formazan. Next, 100 μL of DMSO was added to dissolve the formazan crystals, and the absorbance was measured using an Infinite M200 ELISA plate reader (Tecan, Männedorf, Switzerland) at 570 nm, with 630 nm as a reference wave length. The percentage of cell viability was calculated via the formula (A test /A control ) ×100, in which A test is the average absorbance of the treated cells and A control is the average absorbance of the negative control.
(§3) Cytotoxicity assessment of the cell lines were performed in pentaplicate, and the results were computed as mean ±SD. The experimental results were analyzed using one-way ANOVA analysis in SPSS 16.0 for Windows (SPSS Inc., Chicago, IL, USA) and P <0.05 was considered significant. The IC 50 values were calculated by nonlinear regression analysis using Finney probit analysis in SPSS.

[2] = tested on: MCF-7 cell line (human breast adenocarcinoma); assay: MTT cytotoxicity assay, MCF-7 cells; type: cell-based; conditions: for IC 50 (μg/mL) MCF-7 / IC50: MTT; for IC50: Homo sapiens, read-out: IC 50 (μg/mL) MCF-7; for effect on cell viability in MCF-7 cells: different concentrations, Figure 6, 24 h
Description: as §1, §2, §3

[3] = tested on: AGS cells (gastric adenocarcinoma); assay: MTT cytotoxicity assay, AGS cells; type: cell-based, human; conditions: for IC50: Homo sapiens, AGS cells, MTT
Description: as §1
In this research, the effects of synthesized compounds on the viability of MCF-7, AGS, and HEK cells were evaluated at various concentrations (0.39–200 μg/mL) utilizing 3-(4,5-dimethylthiazol-2-yl)-2,5-diphenyltetrazolium bromide (MTT) assay. After thawing, the cells were cultured in RPMI 1640 medium containing 10% FBS, penicillin (100 U/mL), and streptomycin ([…]) at 37 °C in a humidified 5% CO2 incubator. The cells were seeded in a 96-well plate at a density of 5000 cells per well (the cells were stained with trypan blue and counted with a hemocytometer). The cells were incubated overnight at 37 °C before cell viability testing. A stock suspension of each of the synthesized compounds at 50 mg/mL in distilled water was prepared. […] Next, 100 μL of DMSO was added to dissolve the formazan crystals, and the absorbance was measured using an Infinite M200 ELISA plate reader (Tecan, Männedorf, Switzerland) at 570 nm, with 630 nm as a reference wave length. The percentage of cell viability was calculated via the formula (A test /A control ) ×100, in which A test is the average absorbance of the treated cells and A control is the average absorbance of the negative control.
as §3

[4] = HEK293 cells, MTT, Table 7, 24 h per Figure 6
[5] = MCF-7 cells, Table 7, 24 h per Figure 6
[6] = MCF7, 24 h, MCF-7 cells, Table 7, 24 h per Figure 6

melting point	SMILES	IC 50 (μg/mL) MCF-7 [2, 5]	IC50 [1, 4]	IC50 [2, 6]	cytotoxicity against HEK293 cells compared to the other analogs [1]	effect on cell viability in MCF-7 cells [2]	also measured
–	CCOC(=O)C1=C(C)NC(=O)NC1c1cccs1 (stereo not drawn) [4m]	128.00 µg/mL (≈ 481 µM)	–	–	–	–	IC 50 (μg/mL) HEK293 [1, 4]: 146.25 µg/mL (≈ 549 µM)
168 to 170 °C	N#Cc1c(-c2cccc(Cl)c2)cc(-c2ccccc2)nc1N [5c, 2-Amino-4-(3-chlorophenyl)-6-phenylnicotinonitrile]	–	> 1000 µg/mL	307 µg/mL (≈ 1000 µM)	–	–	–
–	N#Cc1c(-c2ccccc2F)cc(-c2ccccc2)nc1N [5g]	–	950 µg/mL (≈ 3280 µM)	71.9 µg/mL (≈ 249 µM)	less cytotoxic	considerable decrease in cell viability	–
–	CCOC(=O)C1=C(C)NC(=O)NC1c1c(Cl)cccc1Cl (stereo not drawn) [4r]	–	–	–	–	–	IC50 ([1]; HEK293): > 200 µg/mL; IC50 ([2]; MCF7, MCF-7 cells, Table 6 (DHPMs 4j, 4r)): 0.17 µg/mL (≈ 0.516 µM); IC50 ([3]; 24 h, read-out: IC 50 (μg/mL) AGS (24 h)): 30 µg/mL (≈ 91.1 µM); IC50 ([3]; 48 h, read-out: IC 50 (μg/mL) AGS (48 h)): 4.97 µg/mL (≈ 15.1 µM); death of AGS cells ([3]; after treatment for 24 and 48 h, different concentrations (Figure 5)): ≥ 50%
179 to 181 °C	N#Cc1c(-c2ccc(Cl)cc2Cl)cc(-c2ccccc2)nc1N [5m, 2-Amino-4-(2,4-dichlorophenyl)-6-phenylnicotinonitrile]	82.90 µg/mL (≈ 244 µM)	259 µg/mL (≈ 760 µM)	82 µg/mL (≈ 241 µM)	less cytotoxic	considerable decrease in cell viability	–
174 to 176 °C	N#Cc1c(-c2c(Cl)cccc2Cl)cc(-c2ccccc2)nc1N [5l, 2-Amino-4-(2,6-dichlorophenyl)-6-phenylnicotinonitrile]	–	–	–	–	–	–
